Assay results published in ChEMBL document CHEMBL5465560, “Selectivity Literature for EUbOPEN Chemogenomic Library” (2024).
One block for each compound: values may come before it.

Experiments:
[1] = system: Tyrosine-protein kinase ABL1 (Homo sapiens), P00519 [E255K]; assay: (§1) Selectivity interaction (SelectScreen profiling (Invitrogen)) EUB0000607a ABL1; conditions: at 2 µM
[2] = system: Tyrosine-protein kinase ABL1 (Homo sapiens), P00519 [G250E]; assay: as §1; conditions: at 2 µM
[3] = system: Tyrosine-protein kinase ABL1 (Homo sapiens), P00519 [T315I]; assay: as §1; conditions: at 2 µM
[4] = system: Tyrosine-protein kinase ABL1 (Homo sapiens), P00519 [Y253F]; assay: as §1; conditions: at 2 µM
[5] = biological target: Tyrosine-protein kinase ABL1 (Homo sapiens, UniProt P00519); assay: as §1; conditions: at 2 µM
[6] = biological target: T1, Mitogen-activated protein kinase kinase kinase 3 (Homo sapiens) (UniProt Q99759); assay: Selectivity interaction (KinomeScan (DiscoverX)) EUB0000045b MAP3K3
T1 sequence (whole entry): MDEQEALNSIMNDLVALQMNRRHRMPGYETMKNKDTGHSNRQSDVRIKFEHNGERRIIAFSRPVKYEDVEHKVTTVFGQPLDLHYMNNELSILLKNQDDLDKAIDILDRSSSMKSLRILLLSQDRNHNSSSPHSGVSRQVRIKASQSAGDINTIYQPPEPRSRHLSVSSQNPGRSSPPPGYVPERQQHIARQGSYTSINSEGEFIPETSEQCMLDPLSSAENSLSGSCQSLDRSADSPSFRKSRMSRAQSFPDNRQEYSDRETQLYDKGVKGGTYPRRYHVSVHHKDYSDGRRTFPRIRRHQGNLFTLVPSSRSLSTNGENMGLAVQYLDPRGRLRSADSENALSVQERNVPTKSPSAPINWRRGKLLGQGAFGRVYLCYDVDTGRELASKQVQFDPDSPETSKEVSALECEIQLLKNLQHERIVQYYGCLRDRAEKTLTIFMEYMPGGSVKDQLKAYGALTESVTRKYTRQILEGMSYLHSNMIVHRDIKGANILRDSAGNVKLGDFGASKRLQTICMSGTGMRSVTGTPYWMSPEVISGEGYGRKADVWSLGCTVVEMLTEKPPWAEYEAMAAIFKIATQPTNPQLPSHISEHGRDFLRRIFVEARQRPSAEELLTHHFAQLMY

[7] = biological target: T2, MAP kinase-activated protein kinase 5 (Homo sapiens) (UniProt Q8IW41); conditions: at 10 µM
T2 sequence (whole entry): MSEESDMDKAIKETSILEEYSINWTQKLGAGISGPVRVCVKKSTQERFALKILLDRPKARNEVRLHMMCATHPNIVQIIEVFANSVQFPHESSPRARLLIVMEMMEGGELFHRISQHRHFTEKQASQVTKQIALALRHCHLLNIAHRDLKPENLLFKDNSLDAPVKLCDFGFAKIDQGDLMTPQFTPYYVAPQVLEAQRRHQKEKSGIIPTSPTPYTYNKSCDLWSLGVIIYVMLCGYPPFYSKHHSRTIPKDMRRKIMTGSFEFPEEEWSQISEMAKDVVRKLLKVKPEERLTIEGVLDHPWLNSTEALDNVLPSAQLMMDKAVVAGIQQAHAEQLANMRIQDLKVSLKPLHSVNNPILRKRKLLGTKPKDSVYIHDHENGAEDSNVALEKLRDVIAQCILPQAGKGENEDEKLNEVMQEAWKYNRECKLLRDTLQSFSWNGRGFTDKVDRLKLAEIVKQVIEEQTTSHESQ

[8] = biological target: Rho-associated protein kinase 1 (Homo sapiens) (UniProt Q13464); assay: Selectivity interaction (ActivX KiNativ screen (kinase selectivity in THP-1 cell lysates)) EUB0000639a ROCK1; type: subcellular; conditions: lysate
Chain of Rho-associated protein kinase 1 (Homo sapiens) (Q13464 2-1354 limits assumed): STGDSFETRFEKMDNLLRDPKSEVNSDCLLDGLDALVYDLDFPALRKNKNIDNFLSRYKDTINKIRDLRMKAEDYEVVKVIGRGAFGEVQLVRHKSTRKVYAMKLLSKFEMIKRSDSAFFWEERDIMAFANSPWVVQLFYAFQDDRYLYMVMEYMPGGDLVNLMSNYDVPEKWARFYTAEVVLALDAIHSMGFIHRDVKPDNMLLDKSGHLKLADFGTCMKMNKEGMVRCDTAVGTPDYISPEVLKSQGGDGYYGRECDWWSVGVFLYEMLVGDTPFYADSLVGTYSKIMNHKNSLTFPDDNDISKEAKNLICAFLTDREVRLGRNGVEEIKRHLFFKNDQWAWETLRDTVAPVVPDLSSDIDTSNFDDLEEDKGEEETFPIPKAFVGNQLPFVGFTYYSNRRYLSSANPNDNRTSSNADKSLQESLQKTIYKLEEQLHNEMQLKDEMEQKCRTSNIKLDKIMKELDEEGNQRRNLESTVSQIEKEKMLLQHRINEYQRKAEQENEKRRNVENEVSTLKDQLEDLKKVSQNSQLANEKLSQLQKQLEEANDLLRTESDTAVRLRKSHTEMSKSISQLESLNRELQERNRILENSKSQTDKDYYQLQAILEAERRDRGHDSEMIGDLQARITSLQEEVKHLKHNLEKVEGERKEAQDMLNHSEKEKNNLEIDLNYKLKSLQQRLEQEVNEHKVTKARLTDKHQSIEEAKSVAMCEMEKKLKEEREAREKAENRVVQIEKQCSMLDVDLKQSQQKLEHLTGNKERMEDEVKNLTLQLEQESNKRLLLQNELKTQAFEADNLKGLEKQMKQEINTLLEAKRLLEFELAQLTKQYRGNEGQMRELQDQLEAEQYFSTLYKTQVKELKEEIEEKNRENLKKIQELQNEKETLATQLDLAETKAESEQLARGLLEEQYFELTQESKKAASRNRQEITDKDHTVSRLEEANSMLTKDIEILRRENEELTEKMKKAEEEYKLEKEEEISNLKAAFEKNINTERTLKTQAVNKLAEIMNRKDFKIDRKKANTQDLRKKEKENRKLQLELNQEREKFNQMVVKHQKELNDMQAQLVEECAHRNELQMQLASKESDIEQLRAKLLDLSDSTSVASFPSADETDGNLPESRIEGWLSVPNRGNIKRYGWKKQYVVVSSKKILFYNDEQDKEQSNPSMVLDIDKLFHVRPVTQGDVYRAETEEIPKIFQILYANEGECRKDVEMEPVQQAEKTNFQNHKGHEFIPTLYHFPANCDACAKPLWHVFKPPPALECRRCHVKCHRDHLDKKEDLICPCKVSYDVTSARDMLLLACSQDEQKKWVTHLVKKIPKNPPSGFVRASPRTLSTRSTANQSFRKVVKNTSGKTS

[9] = biological target: Wee1-like protein kinase (Homo sapiens) (UniProt P30291); assay: Selectivity interaction (KinomeScan (DiscoverX)) EUB0001049a WEE1; conditions: at 1 µM
Chain of Wee1-like protein kinase (Homo sapiens) (P30291 whole entry, looked up, the tested form may be a part): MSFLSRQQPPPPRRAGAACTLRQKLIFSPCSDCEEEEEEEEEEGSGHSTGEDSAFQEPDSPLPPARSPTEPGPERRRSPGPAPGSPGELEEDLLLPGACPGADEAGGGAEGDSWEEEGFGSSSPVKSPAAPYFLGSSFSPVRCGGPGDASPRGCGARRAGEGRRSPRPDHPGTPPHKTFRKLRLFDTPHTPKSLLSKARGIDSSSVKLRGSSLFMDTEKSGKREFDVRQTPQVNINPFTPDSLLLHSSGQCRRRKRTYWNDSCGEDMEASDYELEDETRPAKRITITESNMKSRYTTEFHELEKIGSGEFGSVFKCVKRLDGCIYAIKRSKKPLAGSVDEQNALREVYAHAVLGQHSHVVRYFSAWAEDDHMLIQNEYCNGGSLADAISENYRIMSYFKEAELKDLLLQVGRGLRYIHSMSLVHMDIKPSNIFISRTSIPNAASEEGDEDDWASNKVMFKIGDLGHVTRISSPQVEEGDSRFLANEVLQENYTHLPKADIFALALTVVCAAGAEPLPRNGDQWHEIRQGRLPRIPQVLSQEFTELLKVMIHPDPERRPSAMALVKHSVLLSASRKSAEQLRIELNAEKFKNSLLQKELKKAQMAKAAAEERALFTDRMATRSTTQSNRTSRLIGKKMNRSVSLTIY

[10] = biological target: T3, Discoidin domain-containing receptor 2 (Homo sapiens) (UniProt Q16832); assay: Selectivity interaction (KinomeScan (DiscoverX)) EUB0000092b DDR2; conditions: at 10 µM
T3 sequence (whole entry): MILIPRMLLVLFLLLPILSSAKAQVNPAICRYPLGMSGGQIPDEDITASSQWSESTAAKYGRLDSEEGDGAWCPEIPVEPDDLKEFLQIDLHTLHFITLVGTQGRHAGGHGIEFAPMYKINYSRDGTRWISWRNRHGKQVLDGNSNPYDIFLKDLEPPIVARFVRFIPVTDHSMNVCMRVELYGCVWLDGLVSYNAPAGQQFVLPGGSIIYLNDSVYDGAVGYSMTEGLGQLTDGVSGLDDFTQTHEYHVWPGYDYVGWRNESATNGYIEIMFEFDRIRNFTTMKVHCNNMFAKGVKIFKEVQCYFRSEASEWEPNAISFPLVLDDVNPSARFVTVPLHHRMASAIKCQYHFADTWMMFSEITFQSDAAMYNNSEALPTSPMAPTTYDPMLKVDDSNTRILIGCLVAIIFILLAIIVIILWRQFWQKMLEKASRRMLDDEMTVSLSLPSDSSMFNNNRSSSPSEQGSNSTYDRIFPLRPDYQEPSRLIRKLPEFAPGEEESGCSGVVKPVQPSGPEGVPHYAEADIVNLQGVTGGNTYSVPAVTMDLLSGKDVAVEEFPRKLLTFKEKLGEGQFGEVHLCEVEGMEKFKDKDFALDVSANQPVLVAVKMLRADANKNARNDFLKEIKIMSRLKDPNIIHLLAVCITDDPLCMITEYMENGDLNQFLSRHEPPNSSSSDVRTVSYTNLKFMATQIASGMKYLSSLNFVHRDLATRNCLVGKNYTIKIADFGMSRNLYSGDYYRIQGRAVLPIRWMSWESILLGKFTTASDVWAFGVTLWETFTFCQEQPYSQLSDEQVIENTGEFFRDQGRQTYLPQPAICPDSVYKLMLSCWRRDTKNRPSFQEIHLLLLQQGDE

Structure (SMILES): CNC(=O)Nc1ccc(-c2nc(N3CC4CCC(C3)O4)c3cnn(C4CCC5(CC4)OCCO5)c3n2)cc1
% of inhibition [1]: 5% | % of inhibition [2]: 3% | % of inhibition [3]: 0% | % of inhibition [4]: 0% | % of inhibition [5]: 4%

Structure (SMILES): C=CC(=O)Nc1cc(-n2c(=O)ccc3cnc4ccc(-c5ccc(NS(C)(=O)=O)cc5)cc4c32)ccc1C
% of control ([6]; at 1 µM): 100% | % of control ([6]; at 10 µM): 79%

Structure (SMILES): Cc1cc([C@@H](C)Nc2ccccc2C(=O)O)c2nc(N3CCOCC3)cc(=O)n2c1 [AZD-6482]
% of control [7]: 100%

% of inhibition ([8]; at 0.01 µM): 12.6% | % of inhibition ([8]; at 0.04 µM): -4.3% | % of inhibition ([8]; at 0.2 µM): -10.6% | % of inhibition ([8]; at 1 µM): 18.3% | % of inhibition ([8]; at 5 µM): 53.9%
Structure (SMILES): CC[C@@H]1[C@H](F)C(=O)N[C@@H]1COc1nccc2cc(C(N)=O)c(OC)cc12 [ZIMLOVISERTIB]

Structure (SMILES): COc1cc(Nc2nc(C)cc(-c3cnn4nc(OC)ccc34)n2)cc(C(F)(F)F)c1
% of control [9]: 95%

Structure (SMILES): CCC(=O)N1CCN(c2ccc(-n3c(=O)ccc4cnc5ccc(-c6cnc7ccccc7c6)cc5c43)cc2C(F)(F)F)CC1
% of control [10]: 100%
